Inconclusive results and toxic doses are left out. No stated cut-off is given here; in the data, active means T/C of 150% or more; inactive means T/C below 125%.
Test system: L1210 leukemia ip in BDF1 mice, survival T/C
Experiment: NCI In Vivo Anticancer Drug Screen. Data for tumor model L1210 Leukemia (intraperitoneal) in B6D2F1 (BDF1) mice
Details: endpoint: mean survival time, higher = longer survival
Outline: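 Tumor cells were implanted, animals were treated, and survival was followed. The result divides the treated measurement by the vehicle-control measurement.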

[1] = dose: 100.0 mg/kg/injection, schedule: Q01DX001 (ip), vehicle: saline with Tween-80
[2] = dose: 200.0 mg/kg/injection, schedule: Q01DX001 (ip), vehicle: saline with Tween-80
[3] = dose: 400.0 mg/kg/injection, schedule: Q01DX001 (ip), vehicle: saline with Tween-80
[4] = dose: 100.0 mg/kg/injection, schedule: Q01DX009 (ip), vehicle: saline with Tween-80
[5] = dose: 100.0 mg/kg/injection, schedule: Q04DX003 (ip), vehicle: saline with Tween-80
[6] = dose: 200.0 mg/kg/injection, schedule: Q01DX009 (ip), vehicle: saline with Tween-80
[7] = dose: 200.0 mg/kg/injection, schedule: Q04DX003 (ip), vehicle: saline with Tween-80
[8] = dose: 400.0 mg/kg/injection, schedule: Q01DX009 (ip), vehicle: saline with Tween-80
[9] = dose: 400.0 mg/kg/injection, schedule: Q04DX003 (ip), vehicle: saline with Tween-80
[10] = dose: 100.0 mg/kg/injection, schedule: Q01DX001 (ip), vehicle: carboxymethylcellulose (CMC)
[11] = dose: 200.0 mg/kg/injection, schedule: Q01DX001 (ip), vehicle: carboxymethylcellulose (CMC)
[12] = dose: 100.0 mg/kg/injection, schedule: Q04DX003 (ip), vehicle: saline
[13] = dose: 200.0 mg/kg/injection, schedule: Q04DX003 (ip), vehicle: saline
[14] = dose: 400.0 mg/kg/injection, schedule: Q04DX003 (ip), vehicle: saline
[15] = dose: 400.0 mg/kg/injection, schedule: Q01DX001 (ip), vehicle: carboxymethylcellulose (CMC)
[16] = dose: 100.0 mg/kg/injection, schedule: Q01DX009 (ip), vehicle: Klucel (hydroxypropylcellulose) (HPC)
[17] = dose: 200.0 mg/kg/injection, schedule: Q01DX009 (ip), vehicle: Klucel (hydroxypropylcellulose) (HPC)
[18] = dose: 100.0 mg/kg/injection, schedule: Q04DX003 (ip), vehicle: Klucel (hydroxypropylcellulose) (HPC)
[19] = dose: 200.0 mg/kg/injection, schedule: Q04DX003 (ip), vehicle: Klucel (hydroxypropylcellulose) (HPC)
[20] = dose: 400.0 mg/kg/injection, schedule: Q04DX003 (ip), vehicle: Klucel (hydroxypropylcellulose) (HPC)
[21] = dose: 100.0 mg/kg/injection, schedule: Q01DX009 (ip), vehicle: saline
[22] = dose: 200.0 mg/kg/injection, schedule: Q01DX009 (ip), vehicle: saline
[23] = dose: 400.0 mg/kg/injection, schedule: Q01DX009 (ip), vehicle: saline
[24] = dose: 100.0 mg/kg/injection, schedule: Q04DX002 (ip), vehicle: saline with Tween-80
[25] = dose: 200.0 mg/kg/injection, schedule: Q04DX002 (ip), vehicle: saline with Tween-80
[26] = dose: 50.0 mg/kg/injection, schedule: Q01DX009 (ip), vehicle: saline

Measured: T/C

CC(=O)N(Cc1cccc([N+](=O)[O-])c1)c1ccc(C(=O)O)cc1
inactive: [1] 98 % of control | [2] 119 % of control | [3] 93 % of control

CC1=CC=CC(=O)C1(C)C(Cl)Cl (centres undefined)
inactive: [4] 91 % of control | [5] 97 % of control | [6] 104 % of control | [7] 108 % of control | [8] 109 % of control | [9] 94 % of control

O=S1OCC=CCO1
inactive: dose: 50.0 mg/kg/injection, schedule: Q01DX001 (ip), vehicle: carboxymethylcellulose (CMC) 108 % of control | [10] 114 % of control | [11] 105 % of control

N=C(N)COc1ccccc1
inactive: dose: 100.0 mg/kg/injection, schedule: Q01DX001 (ip), vehicle: saline sonified 101 % of control | dose: 200.0 mg/kg/injection, schedule: Q01DX001 (ip), vehicle: saline sonified 97 % of control | dose: 400.0 mg/kg/injection, schedule: Q01DX001 (ip), vehicle: saline sonified 95 % of control

Clc1ccc(/C=N\c2nn[nH]n2)c(Cl)c1 (tested in a mixture with another compound)
inactive: [12] 89 % of control | [13] 89 % of control | [14] 98 % of control

C#CC1(OC(=O)NS(=O)(=O)c2ccc(C)cc2)CCCCC1
inactive: [1] 97 % of control | [5] 103 % of control | [2] 101 % of control | [7] 95 % of control | [3] 103 % of control | [9] 101 % of control

CC(=O)Nc1ccc2c(c1)C(=Nc1ccccc1)c1ccccc1-2
inactive: [5] 91 % of control | [7] 91 % of control | [9] 91 % of control

O=C1CC(=O)N(Cc2ccccc2)C(=O)N1Cc1ccccc1
inactive: [10] 86 % of control | [11] 92 % of control | [15] 90 % of control

CCC(C)C(C(=O)OC1CCN(CC)CC1)c1ccccc1 (centres undefined)
inactive: [12] 94 % of control

c1ccc(NCc2ccco2)cc1
inactive: [5] 106 % of control | [7] 98 % of control | [9] 106 % of control

CC(/C=N/NC(=O)c1cnccn1)=N/NC(=O)c1cnccn1
inactive: dose: 50.0 mg/kg/injection, schedule: Q01DX001 (ip), vehicle: water 108 % of control | dose: 100.0 mg/kg/injection, schedule: Q01DX001 (ip), vehicle: water 108 % of control | dose: 200.0 mg/kg/injection, schedule: Q01DX001 (ip), vehicle: water 103 % of control | dose: 400.0 mg/kg/injection, schedule: Q01DX001 (ip), vehicle: water 110 % of control

O=C(Nc1ccc(CCO)cc1)Nc1cc(C(F)(F)F)ccc1Cl
inactive: [16] 100 % of control | [17] 95 % of control

CC(=O)Nc1nc(-c2ccc([N+](=O)[O-])cc2)c(CCC=O)c(=O)[nH]1
inactive: [16] 88 % of control | [18] 90 % of control | [17] 94 % of control | [19] 98 % of control | dose: 400.0 mg/kg/injection, schedule: Q01DX009 (ip), vehicle: Klucel (hydroxypropylcellulose) (HPC) 102 % of control | [20] 98 % of control

OCCC#CCCCO
inactive: [21] 93 % of control | [22] 92 % of control | [23] 88 % of control

COc1cc(C2C(C(=O)OC/C=C/c3ccc4c(c3)OCO4)C(c3cc(OC)c(OC)c(OC)c3)C2C(=O)OC/C=C/c2ccc3c(c2)OCO3)cc(OC)c1OC (centres undefined)
inactive: [10] 90 % of control | [11] 95 % of control | [15] 88 % of control

O=C(COc1ccc(Cl)cc1)Nc1nccs1
inactive: [4] 96 % of control | [6] 89 % of control | [8] 92 % of control

CCCCCCCNC(=S)OCC
inactive: [24] 100 % of control | [25] 107 % of control | dose: 400.0 mg/kg/injection, schedule: Q04DX002 (ip), vehicle: saline with Tween-80 107 % of control

CNC(=O)Nc1ccc(S(=O)(=O)Nc2nc(C)cc(C)n2)cc1
inactive: dose: 50.0 mg/kg/injection, schedule: Q01DX009 (ip), vehicle: saline with Tween-80 96 % of control | [4] 96 % of control | [6] 93 % of control

CC1(C)OCC(C2OC(=O)C(O)=C2O)O1 (centres undefined)
inactive: [26] 111 % of control | [21] 92 % of control | [22] 101 % of control

CC(=O)NC1CON(C(C)=O)C1=O (centres undefined)
inactive: [18] 97 % of control | [19] 103 % of control | [20] 103 % of control

CCN(CC)CCOc1ccc(C)cc1
inactive: [26] 97 % of control | [21] 89 % of control

NCC(=O)Nc1ccc(Cl)cc1C(=O)c1ccc[nH]1
inactive: [4] 93 % of control | [6] 87 % of control | [8] 90 % of control

CC1(C)CCCC(Cl)(C(Cl)c2ccccc2)C1=O (centres undefined)
inactive: [21] 90 % of control | [12] 104 % of control | [22] 95 % of control | [13] 102 % of control | [23] 91 % of control | [14] 104 % of control

COC(=O)c1ccccc1C=O
inactive: [1] 102 % of control | [2] 107 % of control

COC(=O)C(CC(C)C)NC(=O)C(Cc1ccc(Oc2ccc([N+](=O)[O-])cc2[N+](=O)[O-])cc1)NC=O (centres undefined)
inactive: dose: 25.0 mg/kg/injection, schedule: Q01DX009 (ip), vehicle: water 104 % of control | dose: 50.0 mg/kg/injection, schedule: Q01DX009 (ip), vehicle: water 98 % of control | dose: 100.0 mg/kg/injection, schedule: Q01DX009 (ip), vehicle: water 102 % of control | dose: 200.0 mg/kg/injection, schedule: Q01DX009 (ip), vehicle: water 91 % of control | dose: 400.0 mg/kg/injection, schedule: Q01DX009 (ip), vehicle: water 97 % of control

OCC1COCOC1
inactive: [26] 104 % of control | [21] 106 % of control | dose: 100.0 mg/kg/injection, schedule: Q04DX003 (ip), vehicle: acetone 100 % of control | [22] 106 % of control | dose: 200.0 mg/kg/injection, schedule: Q04DX003 (ip), vehicle: acetone 105 % of control | dose: 400.0 mg/kg/injection, schedule: Q04DX003 (ip), vehicle: acetone 105 % of control

CC(=O)NCC(O)C(O)C(O)C(/C=N/Nc1ccccc1)=N/Nc1ccccc1 (centres undefined)
inactive: dose: 50.0 mg/kg/injection, schedule: Q04DX002 (ip), vehicle: saline with Tween-80 88 % of control | [24] 92 % of control | [25] 98 % of control
